Results taken from patent US10082498B2, “Methods for treating ADHD and bipolar disorder using a membrane potential ratio test” (PSYCHNOSTICS, LLC., priority 2013, dated 2018).
Structures can show the parent of a compound that is named as a salt.

Columns and labels:
[1] = system: human patient with BD or ADHD; test: Clinical response of outpatient psychiatric patients to medication (clinical vignettes); format: in vivo; settings: for Clinical stabilization of Bipolar I Disorder: Example 4, person, combination: aripiperazole, citalopram, oxcarbazepine and alprazolam
Description: (§1) Certain patients from the outpatient private psychiatric practice were retested after widely varying intervals as shown in the following Examples. Participation was completely voluntary and only allowed after the signing of a consent form. For the purpose of maintaining the privacy of the subject the lab work was performed confidentially (called blinding of the tester). Each patient was assigned an identification (ID) number and only the clinician had access to the key which correlated ID numbers with patient names.

whole blood cells = test: Membrane potential ratio (MPR) test on blood cells of patients under drug treatment; format: in vivo, human; settings: for MPR value: Example 6, patient with ADHD
Description: The MPR™ test is used to diagnose BD and ADHD. Briefly, the MPR™ test involves measuring the membrane potential of the human cells in a test buffer and in a reference buffer and calculating the ratio of these membrane potentials.
Briefly, the membrane potentials of whole blood cells are measured using two different buffers in a plate reader. The mean MPR™ value is the ratio between the membrane potential of a patient's cells in the test buffer as the numerator and that in the reference buffer as the denominator determined by statistical analysis of multiple measurements, using the ANOVA and the multiple statistical regression analysis.
The membrane potential of a patient's cells may be ascertained by any conventional method, such as by examining the fluorescence intensity of a potential-sensitive lipophilic fluorescent dye. The membrane potential is directly proportional to the intensity of fluorescence according to the following equation: I=CV, wherein I is the fluorescence intensity of a lipophilic fluorescent dye, V is the voltage or membrane potential, and C is a constant that can vary depending on a number of factors such as, but not limited to, temperature, lamp intensity, number of cells, concentration of the fluorescent dye, incubation time, and lipid composition of cells used. The calibration and determination of the value for C can be a cumbersome and unreliable procedure. Thus, according to the present invention, by using the ratio of the fluorescence intensity (I1) of one sample of cells to the fluorescence intensity (I2) of another sample of cells, the constant (C) is canceled out. Such ratio-metric measurements are preferred over absolute measurements.
as §1

human patient = test: Side effects reported by patients on medication; format: in vivo; settings: for Side effects: Example 5, combination: sertraline 50 mg per day and lamotrigine 200 mg per day
human patient with ADHD = test: WHO screener for ADHD symptoms (patient self-report); format: in vivo; settings: for WHO screener, score on the 6 screening items / WHO screener, score out of the total possible of 18: Example 5, combination: sertraline 50 mg per day and lamotrigine 200 mg per day
Description: Certain patients from the outpatient private psychiatric practice were retested after widely varying intervals as shown in the following Examples. Participation was completely voluntary and only allowed after the signing of a consent form. For the purpose of maintaining the privacy of the subject the lab work was performed confidentially (called blinding of the tester). Each patient was assigned an identification (ID) number and only the clinician had access to the key which correlated ID numbers with patient names. Because these were and are patients presenting for treatment, the priority has been their treatment. They have manifested all the typical variability found in clinical practice, and the resulting data points obtained are those possible under these circumstances. The paired MPR™ results are presented along with clinical vignettes. The patients with repeated tests are shown in example 1 and their vignettes are elucidated here. This clinical data and its interpretation provide the basis for the claims of the invention.

[2] = Example 4, combination: escitalopram 10 mg per day, aripiperazole 2 mg per day, alprazolam 0.5 mg twice a day as needed, tapering from oxcarbazepine (A in FIG. 4)
[3] = Example 2, combination: dextroamphetamine sulfate 5 mg three times per day and extended release dexmethylphenidate 20 mg morning and afternoon (C in FIG. 2)
[4] = Example 5, combination: sertraline 50 mg per day and lamotrigine 200 mg per day (B in FIG. 5)
[5] = Example 3, person with BD, combination: lithium, quetiapine and mirtazapine (B in FIG. 3)
[6] = Example 1, combination: selegiline transdermal 12 mg per 24 hours and mixed amphetamine salts 15 mg per day

Compound: Cc1nnc2n1-c1ccc(Cl)cc1C(c1ccccc1)=NC2 [alprazolam]
- Clinical stabilization of Bipolar I Disorder [1]: not fully stabilized
- MPR test range (whole blood cells; [2]): bipolar transition range

Compound: O=C1CCc2ccc(OCCCCN3CCN(c4cccc(Cl)c4Cl)CC3)cc2N1 [aripiperazole]
- Clinical stabilization of Bipolar I Disorder [1]: not fully stabilized
- MPR test range (whole blood cells; [2]): bipolar transition range

Compound: CC(NC(C)(C)C)C(=O)c1cccc(Cl)c1 (stereo not drawn) [bupropion]
- Clinical benefit by history ([1]; Example 5, earlier treatment, patient history): had not offered a benefit

Compound: C[C@H](N)Cc1ccccc1 [dextroamphetamine sulfate]
- MPR test result range (whole blood cells; [3]): ADHD transition range

Compound: CN(C)CCC[C@@]1(c2ccc(F)cc2)OCc2cc(C#N)ccc21 [escitalopram]
- MPR test range (whole blood cells; [2]): bipolar transition range

Compound: COC(=O)[C@H](c1ccccc1)[C@H]1CCCCN1 [extended release dexmethylphenidate, dexmethylphenidate]
- Clinical benefit as reported by patient ([1]; Example 2, combination of dextroamphetamine and extended release dexmethylphenidate, compared with mixed amphetamine salts 40 mg): not working as well
- MPR test result range (whole blood cells; [3]): ADHD transition range

Compound: Nc1nnc(-c2cccc(Cl)c2Cl)c(N)n1 [lamotrigine]
- Clinical benefit ([1]; Example 5, tapered up as per a starter pack, subject able to return to work): offered benefit quickly
- MPR result range (whole blood cells; [4]): ADHD range
- Side effects (human patient): without complaint of side effects
- WHO screener, score on the 6 screening items (human patient with ADHD): 0
- WHO screener, score out of the total possible of 18 (human patient with ADHD): 1

Compound: COC(=O)C(c1ccccc1)C1CCCCN1 (stereo not drawn) [methylphenidate]
- Clinical effect on ADHD symptoms reported by subject ([1]; Example 4, 10 mg twice per day, later 10 mg three times per day, added to BD medication): benefit
- MPR value (whole blood cells; 10 mg (FIG. 6)): close to the BD side of the negative range
- MPR value (whole blood cells; dose reduced to 5 mg (FIG. 6)): moved up close to the right value

Compound: CN1CCN2c3ncccc3Cc3ccccc3C2C1 (stereo not drawn) [mirtazapine]
- Outcome of trial of adding the drug (depression) ([1]; Example 1, added to mixed amphetamine salts): unsuccessful
- MPR result range (whole blood cells; [5]): negative (normal) range

Compound: NC(=O)N1c2ccccc2CC(=O)c2ccccc21 [oxcarbazepine]
- Clinical stabilization of Bipolar I Disorder [1]: not fully stabilized

Compound: OCCN1CCN(CCCN2c3ccccc3Sc3ccc(Cl)cc32)CC1 [perphenazine]
- Side effect leading to discontinuation (human patient; Example 3, very low dosage for neurotic anxiety): blurred vision

Compound: OCCOCCN1CCN(C2=Nc3ccccc3Sc3ccccc32)CC1 [quetiapine]
- Mood stabilization ([1]; Example 4, addition of lithium 600 mg per day and Seroquel 100 mg at bedtime): further stabilized clinically
- MPR result range (whole blood cells; [5]): negative (normal) range
- MPR test range (whole blood cells; Example 4, after addition of lithium 600 mg per day and Seroquel 100 mg at bedtime (B in FIG. 4)): ADHD range

Compound: C#CCN(C)[C@H](C)Cc1ccccc1 [selegiline transdermal, selegiline]
- WHO screener, positive items of the six items (human patient with ADHD; [6]): 1

Compound: CN[C@H]1CC[C@@H](c2ccc(Cl)c(Cl)c2)c2ccccc21 [sertraline]
- Clinical effect on depression according to the subject ([1]; Example 5, person, 100 mg at bedtime): no longer working
- MPR result range (whole blood cells; [4]): ADHD range
- MPR result range (whole blood cells; Example 5, initial evaluation, subject on sertraline 100 mg at bedtime (A in FIG. 5)): BD transition range
- Side effects (human patient): without complaint of side effects
- WHO screener, score on the 6 screening items (human patient with ADHD): 0
- WHO screener, score out of the total possible of 18 (human patient with ADHD): 1

Compound: mixed amphetamine salts
- Symptomatic control of ADHD ([1]; Example 2, 40 mg every morning): good symptomatic control
- MPR value range (whole blood cells; Example 1, blood drawn third week after stopping mixed amphetamine salts (B in FIG. 1)): ADHD range
- MPR value range (whole blood cells; Example 1, person, taking only mixed amphetamine salts (A in FIG. 1)): negative (normal) range
- MPR test result range (whole blood cells; Example 2, 40 mg every morning, with lamotrigine for BD (B in FIG. 2)): negative range
- WHO screener, positive items of the six items (human patient with ADHD; [6]): 1
- WHO screener, positive items of the 6 items (human patient with ADHD; Example 1, taking only mixed amphetamine salts): 3
- WHO screener, positive items of the 6 items (human patient with ADHD; Example 1, two weeks after stopping mixed amphetamine salts): 4
- WHO screener, positive items of the six items (human patient with ADHD; Example 2, 40 mg every morning): two
